Like-named read-outs stand apart in the source and are kept apart here.
Columns and labels:
[1] = biological target: T1, recombinant human Caspase-1 (Homo sapiens, UniProt P29466); experiment: Caspase-1 inhibitory activity, fluorescent substrate Ac-YVAD-AFC; assay type: biochemical
T1 construct: purchased Enzo life science
T1 sequence (P29466 120-297 limits assumed): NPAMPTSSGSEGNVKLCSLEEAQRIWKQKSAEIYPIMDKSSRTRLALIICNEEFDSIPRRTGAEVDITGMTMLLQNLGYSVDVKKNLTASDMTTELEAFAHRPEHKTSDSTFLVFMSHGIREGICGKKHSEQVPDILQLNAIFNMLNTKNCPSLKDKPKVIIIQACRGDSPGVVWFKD
T1 sequence (P29466 317-404 limits assumed): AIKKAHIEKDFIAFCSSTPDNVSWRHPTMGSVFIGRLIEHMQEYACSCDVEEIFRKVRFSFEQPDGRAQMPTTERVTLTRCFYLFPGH
Procedure: To determine the Caspase-1 inhibitory activity of the compounds of the present invention prepared in Example, Caspase-1 activity was measured using a substrate with a fluorescent dye attached to it. […] The compound was dissolved in DMSO and stored at −20° C. Enzymatic reactions were carried out in a buffer comprising 50 mM HEPES (pH 8.0), 50 mM KCl, 200 mM NaCl, 10 mM DTT, 0.1% CHAPS (w/v). Enzyme inactivation was measured in the presence of different concentrations of the compound using the fluorescent substrate N-Acetyl-Tyr-Val-Ala-Asp-7-amido-4-trifluoromethylcoumarin (Ac-YVAD-AFC) (Sigma) at a concentration of 50 μM and 1 unit of recombinant human Caspase-1 (Enzo life science). A CLARIOstar Plus spectrometer (BMG Labtech) was used to measure the reaction rate as a function of time in the 400/505 nm (Ex/Em) wavelength band. […] If kobs/[I] is 20 or more, it is denoted as A, if it is 10 or more but less than 20, it is denoted as B, if it is 1 or more but less than 10, it is denoted as C, and if it is less than 1, it is denoted as D.
In the above equation, At means the enzyme reaction rate at time t (min), and Amax means the maximum reaction rate.

[2] = tested on: Secreted IL-1β in THP-1 cells; experiment: Interleukin-1β inhibitory activity in human monocytic cells THP-1 (ELISA); assay type: cell-based; conditions: compound 100 nM, PMA-differentiated THP-1, LPS 10 μg/ml then 5 mM ATP, 24 h
Procedure: Caspase-1 is known as […] (ICE). Activated Caspase-1 is involved in the cleavage of pro-form IL-1β to produce the mature form, which is then secreted to induce inflammation. Therefore, the compounds identified in Experimental example 1 were tested to determine if their Caspase-1 inhibitory activity affected the production of […].
THP-1 (ATCC) cells were cultured in RPMI 1640 (Hyclone) growth medium comprising 10% Fetal bovine serum (FBS, Gibco) and antibiotics (100 U/ml Penicillin, 0.1 mg/ml Streptomycin, Cytiva) under 37° C., 5% CO2 conditions. Cultured THP-1 cells were seeded in growth medium to a concentration of 3×10^5 cells/well in 24-well plates (Celvest) and then treated with 1 μM Phorbol 12-myristate 13-acetate (PMA) (Sigma) for 24 hours to induce differentiation. Differentiated THP-1 were pre treated with 10 μg/ml Lipopolysaccharide (LPS, from E. coli 0111:B4 (InvivoGen)) in serum free RPMI 1640 medium for 24 hours to induce an inflammatory response. After removal of LPS, the compounds were pretreated for 1 h at a concentration of 100 nM using the same medium, followed by the addition of 5 mM ATP (InvivoGen) and incubation for 24 h in an incubator. The treated medium was collected and centrifuged, and IL-1β was quantified using an Enzyme linked immunoassay kit (ELISA kit, R&D system), and absorbance was measured at 450 nm using a CLARIOstar Plus spectrometer. Inhibitory activity was denoted as a if it was 50% or more, b if it was 30% or more but less than 50%, c if it was 10% or more but less than 30%, and d if it was less than 10%.

Jurkat cells = experiment: Apoptosis inhibition activity in human T-lymphocyte cells Jurkat (anti-FAS antibody, intracellular ATP); assay type: cell-based; conditions: compound 50 nM, 1 μg/ml anti-FAS antibody 24 h, ATP luminescence
Procedure: To evaluate the effect of the compound of the present invention on apoptosis, Jurkat (ATCC) cells were treated with anti-FAS antibody CH-11 (Merck) to induce apoptosis via the Fas (CD95) receptor, which was assessed by the amount of intracellular ATP.
Jurkat cells were cultured in RPMI 1640 growth medium comprising 10% FBS and antibiotics (100 U/ml Penicillin, 0.1 mg/ml Streptomycin) under 37° C., 5% CO2 conditions. Cultured cells were seeded in growth medium to a concentration of 8×10^4 cells/well in 96-well plates (SPL), pretreated with compound at a concentration of 50 nM for 1 hour, and then treated with 1 μg/ml anti-FAS antibody for 24 hours in an incubator. After 24 h, an ATP lite Luminescence assay kit (PerkinElmer) was used to measure ATP and luminescence was measured at 580 nm using a CLARIOstar Plus spectrometer. If the inhibitory activity is 30% or more, it is denoted as a′, if it is 20% or more but less than 30%, it is denoted as b′, if it is 10% or more but less than 20%, it is denoted as c′, and if it is less than 10%, it is denoted as d′.

[3] = pH 8, 1 unit recombinant human Caspase-1, 50 μM Ac-YVAD-AFC, read-out: kobs/[I] Caspase-1
[4] = pH 8, read-out: kobs/[I] Caspase-1

SMILES | kinact/KI [1, 3] [M⁻¹ s⁻¹] | inhibition at 0.1 µM [2] [%] | inhibition at 0.05 µM (Jurkat cells) [%] | kinact/KI [1, 4] [M⁻¹ s⁻¹]
CC(C)[C@@H](C(=O)NC(CC(=O)O)C(=O)CF)N1Cc2ccc(-c3ccc4c(c3)OCCO4)cc2C1=O (stereo partly drawn) [Compound 42, 3-((S)-2-(6-(2,3-dihydrobenzo[b][1,4]dioxin-6-yl)-1-oxoisoindolin-2-yl)-3-methylbutanamido)-5-fluoro-4-oxopentanoic acid] | 0.0167 to 0.167 | 30 to 50 | ≥ 30 | 
CC(C)[C@@H](C(=O)NC(CC(=O)O)C(=O)CF)N1Cc2ccc(-c3ccc4[nH]c(=O)[nH]c4c3)cc2C1=O (stereo partly drawn) [Compound 45, 5-fluoro-3-((S)-3-methyl-2-(1-oxo-6-(2-oxo-2,3-dihydro-1H-benzo[d]imidazol-5-yl)isoindolin-2-yl)butanamido)-4-oxopentanoic acid] |  | 30 to 50 | 10 to 20 | 0.0167 to 0.167
CCC(C(=O)NC(CC(=O)O)C(=O)CF)N1Cc2ccc(-c3ccc4[nH]c(=O)[nH]c4c3)cc2C1=O (stereo not drawn) [Compound 8, 5-fluoro-4-oxo-3-(2-(1-oxo-6-(2-oxo-2,3-dihydro-1H-benzo[d]imidazol-5-yl)isoindolin-2-yl)butanamido)pentanoic acid] | 0.0167 to 0.167 | ≥ 50 | 10 to 20 | 
CCC(C(=O)NC(CC(=O)O)C(=O)CF)N1Cc2ccc(-c3ccc(C(C)=O)cc3)cc2C1=O (stereo not drawn) [Compound 18, 3-(2-(6-(4-acetylphenyl)-1-oxoisoindolin-2-yl)butanamido)-5-fluoro-4-oxopentanoic acid] | 0.0167 to 0.167 | ≥ 50 | 10 to 20 | 
CCC(C(=O)NC(CC(=O)O)C(=O)CF)N1Cc2ccc(-c3ccccc3)cc2C1=O (stereo not drawn) [Compound 1, 5-fluoro-4-oxo-3-(2-(1-oxo-6-phenylisoindolin-2-yl)butanamido)pentanoic acid] | 0.0167 to 0.167 | 10 to 30 | 20 to 30 | 
CC[C@@H](C(=O)NC(CC(=O)O)C(=O)CF)N1Cc2ccc(-c3ccc4[nH]c(=O)[nH]c4c3)cc2C1=O (stereo partly drawn) [Compound 56, 5-fluoro-4-oxo-3-((S)-2-(1-oxo-6-(2-oxo-2,3-dihydro-1H-benzo[d]imidazol-5-yl)isoindolin-2-yl)butanamido)pentanoic acid] | 0.167 to 0.333 | ≥ 50 | < 10 | 
CCC(C(=O)NC(CC(=O)O)C(=O)CF)N1Cc2ccc(-c3cncc4ccccc34)cc2C1=O (stereo not drawn) [Compound 29, 5-fluoro-3-(2-(6-(isoquinolin-4-yl)-1-oxoisoindolin-2-yl)butanamido)-4-oxopentanoic acid] | 0.0167 to 0.167 | < 10 | < 10 | 
CC[C@@H](C(=O)NC(CC(=O)O)C(=O)CF)N1Cc2cc(-c3coc4ccccc34)ccc2C1=O (stereo partly drawn) [Compound 57, 3-((S)-2-(5-(benzofuran-3-yl)-1-oxoisoindolin-2-yl)butanamido)-5-fluoro-4-oxopentanoic acid] |  | 10 to 30 | 20 to 30 | 0.0167 to 0.167
O=C(O)CC(NC(=O)CN1Cc2ccc(-c3ccc4[nH]c(=O)[nH]c4c3)cc2C1=O)C(=O)CF (stereo not drawn) [Compound 38, 5-fluoro-4-oxo-3-(2-(1-oxo-6-(2-oxo-2,3-dihydro-1H-benzo[d]imidazol-5-yl)isoindolin-2-yl)acetamido)pentanoic acid] |  | < 10 | < 10 | < 0.0167

Second part, led by results:

kinact/KI [1, 3] [M⁻¹ s⁻¹] | SMILES | inhibition at 0.1 µM [2] [%] | inhibition at 0.05 µM (Jurkat cells) [%] | kinact/KI [1, 4] [M⁻¹ s⁻¹]
0.0167 to 0.167 | CCC(C(=O)NC(CC(=O)O)C(=O)CF)N1Cc2ccc(N3CCCC3)cc2C1=O (stereo not drawn) [Compound 3, 5-fluoro-4-oxo-3-(2-(1-oxo-6-(pyrrolidin-1-yl)isoindolin-2-yl)butanamido)pentanoic acid] | 30 to 50 | 20 to 30 | 
0.0167 to 0.167 | CCC(C(=O)NC(CC(=O)O)C(=O)CF)N1Cc2ccc(Br)cc2C1=O (stereo not drawn) [Compound 9, 3-(2-(6-bromo-1-oxoisoindolin-2-yl)butanamido)-5-fluoro-4-oxopentanoic acid] | 30 to 50 | ≥ 30 | 
0.0167 to 0.167 | CCC(C(=O)NC(CC(=O)O)C(=O)CF)N1Cc2ccc(-c3ccc4occc4c3)cc2C1=O (stereo not drawn) [Compound 26, 3-(2-(6-(benzofuran-5-yl)-1-oxoisoindolin-2-yl)butanamido)-5-fluoro-4-oxopentanoic acid] | 30 to 50 | ≥ 30 | 
0.0167 to 0.167 | CCC(C(=O)NC(CC(=O)O)C(=O)CF)N1Cc2ccc(-c3ccc(OC)nc3)cc2C1=O (stereo not drawn) [Compound 13, 5-fluoro-3-(2-(6-(6-methoxypyridin-3-yl)-1-oxoisoindolin-2-yl)butanamido)-4-oxopentanoic acid] | ≥ 50 | 20 to 30 | 
0.0167 to 0.167 | CCC(C(=O)NC(CC(=O)O)C(=O)CF)N1Cc2ccc(-c3cccnc3)cc2C1=O (stereo not drawn) [Compound 4, 5-fluoro-4-oxo-3-(2-(1-oxo-6-(pyridin-3-yl)isoindolin-2-yl)butanamido)pentanoic acid] | 30 to 50 | 10 to 20 | 
0.0167 to 0.167 | CCC(C(=O)NC(CC(=O)O)C(=O)CF)N1Cc2ccc(-c3cccc4ccccc34)cc2C1=O (stereo not drawn) [Compound 2, 5-fluoro-3-(2-(6-(naphthalen-1-yl)-1-oxoisoindolin-2-yl)butanamido)-4-oxopentanoic acid] | 30 to 50 | 10 to 20 | 
0.167 to 0.333 | CC[C@@H](C(=O)N[C@@H](CC(=O)O)C(=O)COc1c(F)c(F)cc(F)c1F)N1Cc2ccc(-c3coc4ccccc34)cc2C1=O [Compound 50, (S)-3-((S)-2-(6-(benzofuran-3-yl)-1-oxoisoindolin-2-yl)butanamido)-4-oxo-5-(2,3,5,6-tetrafluorophenoxy)pentanoic acid] | ≥ 50 | ≥ 30 | 
< 0.0167 | CCC(C(=O)NC(CC(=O)O)C(=O)CF)N1Cc2ccc(N3CCN(S(C)(=O)=O)CC3)cc2C1=O (stereo not drawn) [Compound 6, 5-fluoro-3-(2-(6-(4-(methylsulfonyl)piperazin-1-yl)-1-oxoisoindolin-2-yl)butanamido)-4-oxopentanoic acid] | 10 to 30 | 10 to 20 | 
0.0167 to 0.167 | CCC(C(=O)NC(CC(=O)O)C(=O)CF)N1Cc2ccc(-c3cn[nH]c3)cc2C1=O (stereo not drawn) [Compound 5, 5-fluoro-4-oxo-3-(2-(1-oxo-6-(1H-pyrazol-4-yl)isoindolin-2-yl)butanamido)pentanoic acid] | 30 to 50 | 10 to 20 | 
